From patent US9090658B2, “Base-substituted benzylamine analogs for use as coagulation factor Xa inhibitors, the production and use thereof” (The Medicines Company (Leipzig) GmbH, priority 2003, dated 2015) come the findings set out here.

pKi: −log10 of the molar value. Where a name gives a salt, the structure may show the parent alone.

For one experiment, the target named is Thrombin (UniProt P00735). As to the kind of experiment: Determination of the inhibitory constants for thrombin (method of Stürzebecher et al. 1997). The experiment is classed as biochemical. An excerpt:
The Ki values are the average of at least three determinations.

The next experiment addresses T1, factor Xa (Bos taurus, UniProt P00743).
T1 construct: purchased Diagnostic Reagents Ltd, Thame, GB
Briefly: Determination of the inhibitory constants for factor Xa (chromogenic substrate Moc-D-Nle-Gly-Arg-pNA, Dixon method). Type of experiment: biochemical, bovine. The settings on record: for pKi: bovine factor Xa, 25° C., pH 8.0, average of at least three determinations. How it is done: Determination of the inhibitory Effect
To determine the inhibitory effect, 200 μl of this buffer (0.05 M 0.154 M NaCl, 5% Ethanol, pH 8.0; contains the inhibitor), 25 μl of substrate (Moc-D-Nle-Gly-Arg-pNA in H2O; Pentapharm Ltd., Basle, Switzerland) and 50 μl of factor Xa (bovine, Diagnostic Reagents Ltd, thame, GB) were incubated at 25° C. After 3 min, the reaction was stopped By adding 25 μl of acetic acid (50%), and the absorption at 405 nm was determined using a Microplate Reader (MR 5000, Dynatech, Denkendorf, Germany). The Ki values were Founder by the Dixon method (boichem. J. 55, 170-171, 1953) by linear regression using a Computer program. The Ki values are the average of at least three determinations. The Thrombin inhibitions was determined in analogy to a method described earlier (Stürzebecher et al., J. Med. Chem. 40, 3091-3099, 1997).

T1 sequence (P00743 234-492 limits assumed): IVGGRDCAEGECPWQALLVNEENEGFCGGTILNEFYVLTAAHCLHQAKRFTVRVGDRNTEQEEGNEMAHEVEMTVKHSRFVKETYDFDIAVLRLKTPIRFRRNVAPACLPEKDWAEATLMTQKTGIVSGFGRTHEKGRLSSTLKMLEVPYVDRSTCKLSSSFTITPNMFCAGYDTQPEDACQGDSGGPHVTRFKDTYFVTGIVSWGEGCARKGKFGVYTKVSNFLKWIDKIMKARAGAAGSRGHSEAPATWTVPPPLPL
T1 sequence (P00743 41-180 partner limits assumed): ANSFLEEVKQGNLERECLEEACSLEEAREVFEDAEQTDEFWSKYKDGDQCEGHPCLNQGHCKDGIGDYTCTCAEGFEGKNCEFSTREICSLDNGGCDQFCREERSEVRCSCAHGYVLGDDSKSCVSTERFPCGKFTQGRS

Consider `N=C(N)c1ccc(CNC(=O)CNC(=O)[C@@H](CCc2ccccc2)NS(=O)(=O)Cc2ccccc2[N+](=O)[O-])cc1` [Compound 20], for which the pKi at Thrombin was 5.92; at factor Xa, 7.59. In addition, the “selectivity ratio SR (SR = Ki thrombin/Ki factor Xa)” value (shortened to “selectivity ratio SR”) on factor Xa is reported as 46.
With `N=C(N)c1ccc(CNC(=O)CNC(=O)[C@@H](CCc2ccccc2)NCC(=O)O)cc1` [Compound 64], the pKi at Thrombin was 4.55. Besides, on factor Xa, the “selectivity ratio SR” value came out at 32 and the negative logarithm of the Ki (pKi) is 6.06.
`N=C(N)c1ccc(CNC(=O)CNC(=O)[C@@H](CCc2ccccc2)NS(=O)(=O)Cc2ccc(N)cc2)cc1` [Compound 29] had a pKi at Thrombin of 6.59. Besides, on factor Xa, the “selectivity ratio SR” value was 100 and the pKi is 8.59.
As to `CCOC(=O)CC[C@H](NC(=O)[C@@H](CCc1ccc(O)cc1)NS(=O)(=O)Cc1ccccc1)C(=O)NCc1ccc(C(=N)N)cc1` [Compound 35], on Thrombin, the pKi was 6.00. At factor Xa, the “selectivity ratio SR” value came to 200 and the pKi is 8.30.
Compound `N=C(N)c1ccc(CNC(=O)CNC(=O)[C@@H](CCc2ccc(O)cc2)NS(=O)(=O)Cc2ccccc2)cc1` [Compound 5, Bzls-d-homoTyr-Gly-4Amba×TFA] gave a pKi at Thrombin of 5.82. On factor Xa, the “selectivity ratio SR” value was determined as 556 and the pKi was 8.57.
For `CC(C)(C)OC(=O)CC[C@H](NC(=O)[C@@H](CCc1ccc(O)cc1)NS(=O)(=O)Cc1ccc([N+](=O)[O-])cc1)C(=O)NCc1ccc(C(=N)N)cc1` [Compound 54], the pKi on Thrombin is 6.16; at factor Xa it was 7.41. For the same compound, on factor Xa, the “selectivity ratio SR” value is recorded as 18.
For `N=C(N)c1ccc(CNC(=O)CNC(=O)C(CCc2ccncc2)NS(=O)(=O)Cc2ccc([N+](=O)[O-])cc2)cc1` (stereo not drawn) [Compound 31] the same measures were 5.72, 8.46 and 543.
The compound `N=C(N)c1ccc(CNC(=O)CNC(=O)[C@@H](/C=C/c2ccccc2)NS(=O)(=O)Cc2ccccc2)cc1` [Compound 40] showed a pKi on Thrombin of 5.96. In addition, at factor Xa, the “selectivity ratio SR” value amounted to 170 and the pKi was 8.19.
The matching figures for `CC(C)(C)OC(=O)CCC[C@H](NC(=O)[C@@H](CCc1ccccc1)NS(=O)(=O)Cc1ccccc1)C(=O)NCc1ccc(C(=N)N)cc1` [Compound 57]: 6.34, 3.5 and 6.89.
With `N=C(N)c1ccc(CNC(=O)CNC(=O)[C@@H](CCc2ccccc2)NS(=O)(=O)Cc2cccc(O)c2)cc1` [Compound 42], at Thrombin, the pKi was 5.82. At factor Xa, the “selectivity ratio SR” value came to 288 and the pKi was 8.14.
As for `N=C(N)c1ccc(CNC(=O)[C@H](CCC(=O)O)NC(=O)[C@@H](CCc2ccncc2)NS(=O)(=O)Cc2ccc(N)cc2)cc1` [Compound 26], the figures for the pKi at Thrombin and on factor Xa were 4.60 and 8.77, respectively. Besides, at factor Xa, the “selectivity ratio SR” value came to 14705.
`N=C(N)c1ccc(CNC(=O)CNC(=O)[C@@H](CCCc2ccccc2)NS(=O)(=O)Cc2ccccc2)cc1` [Compound 55]: the pKi on Thrombin is 6.68. Also, on factor Xa, the “selectivity ratio SR” value came to 3 and the pKi was 7.17.
As for `N=C(N)c1ccc(CNC(=O)[C@H](CCC(=O)O)NC(=O)[C@@H](CCc2ccccc2)NS(=O)(=O)Cc2cccc([N+](=O)[O-])c2)cc1` [Compound 56], the pKi on Thrombin is 4.89; on factor Xa it was 7.08. For the same compound, on factor Xa, the “selectivity ratio SR” value was 156.
At Thrombin, `N=C(N)c1ccc(CNC(=O)[C@H](CCC(=O)O)NC(=O)[C@@H](CCc2ccncc2)NS(=O)(=O)Cc2ccc(O)cc2)cc1` [Compound 33] had a pKi of 4.00. Besides, on factor Xa, the “selectivity ratio SR” value is 27778 and the pKi was 8.44.
The matching figures for `N=C(N)c1ccc(CNC(=O)CNC(=O)[C@@H](CCc2ccccc2)NS(=O)(=O)Cc2cc[n+]([O-])cc2)cc1` [Compound 59]: 4.80, 16 and 6.01.
As for `N=C(N)c1ccc(CNC(=O)CNC(=O)[C@H](CCc2ccccc2)NS(=O)(=O)Cc2ccccc2)cc1` [Compound 12], the pKi is 4.96 on Thrombin and 6.44 on factor Xa. Besides, the “selectivity ratio SR” value on factor Xa came out at 31.
As for `CC(C)(C)OC(=O)CN[C@H](CCc1ccccc1)C(=O)NCC(=O)NCc1ccc(C(=N)N)cc1` [Compound 63], on Thrombin, the pKi is 5.82. At factor Xa, the “selectivity ratio SR” value is on record as 2.4 and the pKi is 6.21.
For `N=C(N)c1ccc(CNC(=O)[C@H](CCC(=O)O)NC(=O)[C@@H](CCc2ccc(O)cc2)NS(=O)(=O)Cc2ccc([N+](=O)[O-])cc2)cc1` [Compound 43], the pKi at Thrombin is 4.82; on factor Xa, 8.12. For the same compound, the “selectivity ratio SR” value at factor Xa is recorded as 2000.
With `N=C(N)c1ccc(CNC(=O)CNC(=O)[C@@H](C/C=C/c2ccccc2)NS(=O)(=O)Cc2ccccc2)cc1` [Compound 58], the pKi at Thrombin is 5.74. In addition, on factor Xa, the “selectivity ratio SR” value is 3.1 and the negative-log Ki (pKi) was 6.24.
Consider `CS(=O)(=O)N[C@H](CCc1ccccc1)C(=O)NCC(=O)NCc1ccc(C(=N)N)cc1` [Compound 62], for which, at Thrombin, the pKi is 5.89. On factor Xa, the “selectivity ratio SR” value is 1.2 and the pKi is 5.97.
The compound `N=C(N)c1ccc(CNC(=O)CNC(=O)[C@@H](CCc2ccccc2)NS(=O)(=O)NC2CCCCC2)cc1.O=C(O)C(F)(F)F` [Compound 18] gave a pKi on Thrombin of 5.27. Also, on factor Xa, the “selectivity ratio SR” value came to 49 and the pKi was 6.96.
`N=C(N)c1ccc(CNC(=O)[C@H](CCC(=O)NCc2ccccc2)NC(=O)[C@@H](CCc2ccncc2)NS(=O)(=O)Cc2ccccc2)cc1` [Compound 61]: the pKi at Thrombin is 5.77. In addition, at factor Xa, the “selectivity ratio SR” value was 250 and the pKi was 8.17.
Compound `CS(=O)(=O)N[C@H](CCc1ccccc1)C(=O)NCC(=O)NCc1ccc(C(=N)N)cc1` [Compound 13] had a pKi on Thrombin of 5.89. Also, on factor Xa, the “selectivity ratio SR” value turned out to be 1.2 and the pKi is 5.96.
`CC(C)(C)OC(=O)CC[C@H](NC(=O)[C@@H](CCc1ccncc1)NS(=O)(=O)Cc1ccc([N+](=O)[O-])cc1)C(=O)NCc1ccc(C(=N)N)cc1` [Compound 51] gave a pKi on Thrombin of 5.85. In addition, on factor Xa, the “selectivity ratio SR” value is listed as 87 and the pKi is 7.80.
As for `COC(=O)c1ccc(CS(=O)(=O)NC(CCc2ccncc2)C(=O)NCC(=O)NCc2ccc(C(=N)N)cc2)cc1` (stereo not drawn) [Compound 46], the negative logarithm of the Ki (pKi) is 5.12 at Thrombin and 8.01 on factor Xa. For the same compound, on factor Xa, the “selectivity ratio SR” value is listed as 775.
As for `N=C(N)c1ccc(CNC(=O)[C@H](CCCC(=O)O)NC(=O)[C@@H](CCc2ccccc2)NS(=O)(=O)Cc2ccccc2)cc1` [Compound 53], at Thrombin, the pKi is 6.10. At factor Xa, the “selectivity ratio SR” value turned out to be 27 and the pKi is 7.52.
In the case of `N=C(N)c1ccc(CNC(=O)[C@H](CCC(=O)O)NC(=O)C(CCc2ccncc2)NS(=O)(=O)Cc2ccc([N+](=O)[O-])cc2)cc1` (stereo partly drawn) [Compound 37], the pKi on Thrombin is 4.46; on factor Xa, 8.25. At factor Xa, the “selectivity ratio SR” value came to 6250.

Broadly, the pKi is the negative decadic logarithm of the Ki, by convention in mol/L. A higher pKi goes with a low Ki.
